From paper PMC7673559 (2020)

What was measured:
[1] = test system: T1 (DNA, G4) GGGTTGGGTTGGGTTGGG; experiment: CD melting at 262 nm; conditions: 5 mM K+, 95 mM Li+; 10 mM lithium cacodylate pH 7.2; ~5 μM DNA, 2 eq. NMM
[2] = test system: T7 (DNA, G4) TGGGTTGGGTTGGGTTGGGT; experiment: CD melting at 262 nm; conditions: 5 mM K+, 95 mM Li+; 10 mM lithium cacodylate pH 7.2; ~5 μM DNA, 2 eq. NMM
[3] = test system: T8 (DNA, G4) CGGGTTGGGTTGGGTTGGGG; experiment: CD melting at 262 nm; conditions: 5 mM K+, 95 mM Li+; 10 mM lithium cacodylate pH 7.2; ~5 μM DNA, 2 eq. NMM
[4] = test system: T1 (DNA, G4) GGGTTGGGTTGGGTTGGG; experiment: X-ray crystallography, 2.39 Å; conditions: 20 mM K+; annealed in 10 mM lithium cacodylate pH 7.2; 5'-5' GQ dimer, NMM on 3' G-quartet
[5] = test system: T7 (DNA, G4) TGGGTTGGGTTGGGTTGGGT; experiment: X-ray crystallography, 2.34 Å; conditions: 20 mM K+; annealed in 10 mM lithium cacodylate pH 7.2; 5'-5' GQ dimer, NMM on 3' G-quartet
[6] = test system: T7 (DNA, G4) TGGGTTGGGTTGGGTTGGGT; experiment: UV-vis titration, SVD, direct fit; conditions: 5 mM K+, 95 mM Li+; 10 mM lithium cacodylate pH 7.2; 4.3 μM NMM titrated with DNA

ΔTm [1]: 20. ± 1 °C
ΔTm [2]: 19.9 ± 0.4 °C
ΔTm [3]: 17.0 ± 0.5 °C
binding [4]: yes
binding [5]: yes
Ka [6]: 18 ± 7 µM⁻¹
SMILES: CCc1c(C)c2cc3nc(cc4nc(cc5c(CC)c(C)c(cc1[nH]2)n5C)C(C)=C4CCC(=O)O)C(CCC(=O)O)=C3C
